Test results reported in article PMC11345766, “Computational Design of Pore-Forming Peptides with Potent Antimicrobial and Anticancer Activities” (Journal of Medicinal Chemistry, 2024).
Ends that are not written are not given here.

Experiment: AFM imaging of supported lipid bilayers
Details: P:L 1:500 (1 μM peptide)
Method: The SLBs were composed of POPC:POPG (1:1 mol/mol) lipids, the same composition used in the dye leakage assay. […] The pores were stable for an investigation period of 2 h and were visibly more numerous than those produced by LP1.[29]
Effects of peptides on the SLBs composed of POPC:POPG (1:1 mol/mol) lipids was investigated using AFM. LUVs were prepared in lipid dissolution buffer (50 mM Tris–HCl and 50 mM KCl) following a dye leakage assay protocol without calcein. Vesicles were sonicated for 30 min at 25 °C and extruded through a 50 nm pore size filter to form small unilamellar vesicles (SUVs). Following the vesicle deposition method,[103] SLBs were formed on mica using SUVs in SLB-forming buffer (50 mM Tris–HCl and 300 mM KCl) and 5 mM CaCl2, mounting a total volume of 150 μL on mica. After 1 h incubation at 25 °C, mica was washed 10 times with SLB-forming buffer and subjected to AFM analysis. The investigated P:L ratio was 1:500 (mol/mol). Bruker Dimension Icon AFM (USA) equipped with a PeakForce-HIRS-F-B silicon nitride probe (spring constant 0.12 N/m) was used to capture topographic images. PeakForce Quantitative NanoMechanic hybrid mode was used with 2 kHz frequency and 25 nm amplitude using set point <100 pN. The scan rate was 1 Hz using 512 samples/line. […]

Substance: KKKKLKKILKKLFQFINQLDNQLQDIKKKK-NH2 [LP18]
- Membrane defects or pores formed on SLBs: significantly higher number of membrane defects or pores than LP1
